According to PubChem BioAssay (NCI):
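Values below derive from 48-hour exposures of cells grown in 96-well plates, with endpoints linearly interpolated between the two concentrations bracketing the appropriate inhibition level. The concentration for full growth arrest is given as TGI.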

Key:
Assay in all cases: NCI tumour cell line growth inhibition, 48 h
HT29 colon = tested on: HT29 colon
SK-MEL-28 melanoma = tested on: SK-MEL-28 melanoma
ACHN renal = tested on: ACHN renal
SF-268 CNS = tested on: SF-268 CNS
HCT-15 colon = tested on: HCT-15 colon
EKVX NSCLC = tested on: EKVX NSCLC
OVCAR-3 ovarian = tested on: OVCAR-3 ovarian
CAKI-1 renal = tested on: CAKI-1 renal
COLO 205 colon = tested on: COLO 205 colon
NCI-H522 lung = tested on: NCI-H522 lung
M14 melanoma = tested on: M14 melanoma
786-0 renal = tested on: 786-0 renal
SK-MEL-2 melanoma = tested on: SK-MEL-2 melanoma
PC-3 prostate = tested on: PC-3 prostate
NCI/ADR-RES ovarian = tested on: NCI/ADR-RES ovarian
KM12 colon = tested on: KM12 colon
SNB-19 CNS = tested on: SNB-19 CNS
A498 renal = tested on: A498 renal
NCI-H226 lung = tested on: NCI-H226 lung
MDA-MB-435 = tested on: MDA-MB-435
OVCAR-4 ovarian = tested on: OVCAR-4 ovarian
OVCAR-5 ovarian = tested on: OVCAR-5 ovarian
LOX IMVI melanoma = tested on: LOX IMVI melanoma
T-47D breast = tested on: T-47D breast
SF-295 CNS = tested on: SF-295 CNS
DU-145 prostate = tested on: DU-145 prostate
RPMI-8226 leukemia = tested on: RPMI-8226 leukemia
MCF7 breast = tested on: MCF7 breast
HOP-62 NSCLC = tested on: HOP-62 NSCLC
MDA-N = tested on: MDA-N
UACC-62 melanoma = tested on: UACC-62 melanoma
HOP-92 NSCLC = tested on: HOP-92 NSCLC
HCC-2998 colon = tested on: HCC-2998 colon
K-562 leukemia = tested on: K-562 leukemia
U251 CNS = tested on: U251 CNS
IGROV1 ovarian = tested on: IGROV1 ovarian
A549 NSCLC = tested on: A549 NSCLC
SK-MEL-5 melanoma = tested on: SK-MEL-5 melanoma
SF-539 CNS = tested on: SF-539 CNS
NCI-H460 lung = tested on: NCI-H460 lung
HS 578T breast = tested on: HS 578T breast
MALME-3M melanoma = tested on: MALME-3M melanoma
MOLT-4 leukemia = tested on: MOLT-4 leukemia
HCT-116 colon = tested on: HCT-116 colon
SN12C renal = tested on: SN12C renal
RXF 393 renal = tested on: RXF 393 renal
SK-OV-3 ovarian = tested on: SK-OV-3 ovarian
SW-620 colon = tested on: SW-620 colon
NCI-H23 lung = tested on: NCI-H23 lung
UACC-257 melanoma = tested on: UACC-257 melanoma
SR leukemia = tested on: SR leukemia
HL-60(TB) leukemia = tested on: HL-60(TB) leukemia
TK-10 renal = tested on: TK-10 renal
MDA-MB-231 breast = tested on: MDA-MB-231 breast
UO-31 renal = tested on: UO-31 renal
CCRF-CEM leukemia = tested on: CCRF-CEM leukemia
BT-549 breast = tested on: BT-549 breast
OVCAR-8 ovarian = tested on: OVCAR-8 ovarian

`O=C1C[C@@]23CCC4(CC2=CCC[C@H]3O1)OCCO4` gave a TGI (HT29 colon) of over 100 µM, a TGI (SK-MEL-28 melanoma) of over 100 µM and a TGI (ACHN renal) of over 100 µM. For the same compound, the TGI (SF-268 CNS) was over 100 µM, the TGI (HCT-15 colon) was over 100 µM and the TGI (EKVX NSCLC) was over 100 µM. The TGI (OVCAR-3 ovarian) was over 100 µM, the TGI (CAKI-1 renal) was over 100 µM and the TGI (COLO 205 colon) was over 100 µM. It also gave a TGI (NCI-H522 lung) of over 100 µM, a TGI (M14 melanoma) of over 100 µM and a TGI (786-0 renal) of over 100 µM. For the same compound, the TGI (SK-MEL-2 melanoma) was over 100 µM, the TGI (PC-3 prostate) was over 100 µM and the TGI (NCI/ADR-RES ovarian) was over 100 µM. It also gave a TGI (KM12 colon) of over 100 µM, a TGI (SNB-19 CNS) of over 100 µM and a TGI (A498 renal) of over 100 µM. For the same compound, the TGI (NCI-H226 lung) was over 100 µM, the TGI (MDA-MB-435) was over 100 µM and the TGI (OVCAR-4 ovarian) was over 100 µM. It also gave a TGI (OVCAR-5 ovarian) of over 100 µM, a TGI (LOX IMVI melanoma) of over 100 µM and a TGI (T-47D breast) of over 100 µM. The TGI (SF-295 CNS) was over 100 µM, the TGI (DU-145 prostate) was over 100 µM and the TGI (RPMI-8226 leukemia) was over 100 µM. It also gave a TGI (MCF7 breast) of over 100 µM, a TGI (HOP-62 NSCLC) of over 100 µM and a TGI (MDA-N) of over 100 µM. For the same compound, the TGI (UACC-62 melanoma) was over 100 µM, the TGI (HOP-92 NSCLC) was over 100 µM and the TGI (HCC-2998 colon) was over 100 µM. The TGI (K-562 leukemia) was over 100 µM, the TGI (U251 CNS) was over 100 µM and the TGI (IGROV1 ovarian) was over 100 µM. For the same compound, the TGI (A549 NSCLC) was over 100 µM, the TGI (SK-MEL-5 melanoma) was over 100 µM and the TGI (SF-539 CNS) was over 100 µM. The TGI (NCI-H460 lung) was over 100 µM, the TGI (HS 578T breast) was over 100 µM and the TGI (MALME-3M melanoma) was over 100 µM. The TGI (MOLT-4 leukemia) was over 100 µM, the TGI (HCT-116 colon) was over 100 µM and the TGI (SN12C renal) was over 100 µM. The TGI (RXF 393 renal) was over 100 µM, the TGI (SK-OV-3 ovarian) was over 100 µM and the TGI (SW-620 colon) was over 100 µM. The TGI (NCI-H23 lung) was over 100 µM, the TGI (UACC-257 melanoma) was over 100 µM and the TGI (SR leukemia) was over 100 µM. It also gave a TGI (HL-60(TB) leukemia) of over 100 µM, a TGI (TK-10 renal) of over 100 µM and a TGI (MDA-MB-231 breast) of over 100 µM.
In the case of `Nn1c(=S)[nH]nc(/C=C/c2c(O)ccc3ccccc23)c1=O`, the TGI (HT29 colon) is reported as 21.9 µM, the TGI (SK-MEL-28 melanoma) is reported as 73.5 µM and the TGI (ACHN renal) is reported as 51.7 µM. For the same compound, the TGI (SF-268 CNS) was 38.6 µM, the TGI (HCT-15 colon) was 17.9 µM and the TGI (EKVX NSCLC) was 20.9 µM. It also gave a TGI (OVCAR-3 ovarian) of 22.1 µM, a TGI (CAKI-1 renal) of 36.1 µM and a TGI (COLO 205 colon) of 27.7 µM. For the same compound, the TGI (NCI-H522 lung) was 16.7 µM, the TGI (UO-31 renal) was 34.8 µM and the TGI (M14 melanoma) was 41.6 µM. For the same compound, the TGI (786-0 renal) was over 100 µM, the TGI (SK-MEL-2 melanoma) was over 100 µM and the TGI (PC-3 prostate) was over 100 µM. It also gave a TGI (NCI/ADR-RES ovarian) of 14.4 µM, a TGI (CCRF-CEM leukemia) of 9.7 µM and a TGI (KM12 colon) of 59.5 µM. For the same compound, the TGI (SNB-19 CNS) was over 100 µM, the TGI (A498 renal) was 69.9 µM and the TGI (MDA-MB-435) was over 100 µM. The TGI (OVCAR-4 ovarian) was 25 µM, the TGI (OVCAR-5 ovarian) was 42.5 µM and the TGI (LOX IMVI melanoma) was 11.7 µM. For the same compound, the TGI (T-47D breast) was 31.9 µM, the TGI (SF-295 CNS) was 96.1 µM and the TGI (DU-145 prostate) was over 100 µM. It also gave a TGI (BT-549 breast) of 31.3 µM, a TGI (RPMI-8226 leukemia) of over 100 µM and a TGI (MCF7 breast) of 12.6 µM. The TGI (HOP-62 NSCLC) was 62.8 µM, the TGI (MDA-N) was over 100 µM and the TGI (UACC-62 melanoma) was 26.2 µM. The TGI (HCC-2998 colon) was 54.5 µM, the TGI (K-562 leukemia) was over 100 µM and the TGI (U251 CNS) was over 100 µM. It also gave a TGI (IGROV1 ovarian) of 5.56 µM, a TGI (A549 NSCLC) of 71.2 µM and a TGI (SK-MEL-5 melanoma) of 26.5 µM. The TGI (SF-539 CNS) was over 100 µM, the TGI (NCI-H460 lung) was 76.5 µM and the TGI (MALME-3M melanoma) was 44.6 µM. It also gave a TGI (MOLT-4 leukemia) of 86.1 µM, a TGI (HCT-116 colon) of 12.5 µM and a TGI (OVCAR-8 ovarian) of 4.81 µM. For the same compound, the TGI (SK-OV-3 ovarian) was 95.4 µM, the TGI (SW-620 colon) was over 100 µM and the TGI (NCI-H23 lung) was 11 µM. It also gave a TGI (UACC-257 melanoma) of 50.9 µM, a TGI (SR leukemia) of 87.1 µM and a TGI (HL-60(TB) leukemia) of 4.14 µM.
